According to the NIST ThermoML archive (doi:10.1016/j.jct.2013.05.037):

Tests used:
[1] = mn = molality of the nth substance listed, in mol/kg; details: for surface tension liquid-gas: Pendant drop shape; for viscosity / speed of sound / mass density: 101 kPa, Liquid; for viscosity: Capillary tube (Ostwald / Ubbelohde) method; for speed of sound: Sing-around technique in a fixed-path interferometer; for mass density: Vibrating tube method
[2] = for surface tension liquid-gas: Pendant drop shape; for viscosity / mass density: 101.33 kPa, Liquid; for viscosity: Capillary tube (Ostwald / Ubbelohde) method; for mass density: Vibrating tube method

O [water] + NCC(=O)O
[1], m2 = 0
Details	surface tension liquid-gas [mN/m]
293.15 K	72.75
298.15 K	71.97
303.15 K	71.18
308.15 K	70.38

N[C@@H](Cc1ccccc1)C(=O)O [L-phenylalanine] + O
surface tension liquid-gas [mN/m], [1]
Details	m1 = 0.0505	m1 = 0.0759	m1 = 0.1015	m1 = 0.1273	m1 = 0.1532
293.15 K	72.38	71.94	70.99	70.56	70.14
298.15 K	71.09	70.66	69.74	68.37	66.91
303.15 K	70.83	69.91	68.53	66.61	64.53
308.15 K	70.03	68.98	66.59	65.22	63.35

C[C@H](N)C(=O)O [(S)-2-aminopropanoic acid] + O
surface tension liquid-gas [mN/m], [1]
Details	m1 = 0.0503	m1 = 0.0755	m1 = 0.1009	m1 = 0.1263	m1 = 0.1518
293.15 K	72.86	72.91	72.78	72.66	72.53
298.15 K	72.07	72.12	72	71.88	71.76
303.15 K	71.28	71.33	71.38	71.43	71.48
308.15 K	70.46	70.53	70.58	70.63	70.68

O [water]
[2]
Details	mass density [kg/m3]	surface tension liquid-gas [mN/m]	viscosity [mPa·s]
293.15 K	998.587	72.75	1.002
298.15 K	997.425	71.97	0.8937
303.15 K	996.04	71.18	0.8001
308.15 K	994.425	70.38	0.7225

O [water] + C[C@H](N)C(=O)O
[1], m2 = 0
Details	surface tension liquid-gas [mN/m]
293.15 K	72.75
298.15 K	71.97
303.15 K	71.18
308.15 K	70.38

O [water] + N[C@@H](Cc1ccccc1)C(=O)O
[1], m2 = 0
Details	surface tension liquid-gas [mN/m]
293.15 K	72.75
298.15 K	71.97
303.15 K	71.18
308.15 K	70.38

CCCCCCCCCCCCCCCC[n+]1ccccc1.[Cl-] [cetylpyridinium chloride] + O
[1], m1 = 0.002
Details	mass density [kg/m3]	speed of sound [m/s]	surface tension liquid-gas [mN/m]	viscosity [mPa·s]
293.15 K	998.567	1483.1	41.75	1.004
298.15 K	997.407	1497.2	41.6	0.9033
303.15 K	996.012	1509.4	41.57	0.8137
308.15 K	994.387	1519.8	41.35	0.7557

CCCCCCCC[N+](C)(CCCCCCCC)CCCCCCCC.[Cl-] [N-methyl-N,N-dioctyl-1-octanaminium chloride] + O
[1], m1 = 0.002
Details	mass density [kg/m3]	speed of sound [m/s]	surface tension liquid-gas [mN/m]	viscosity [mPa·s]
293.15 K	998.54	1483.4	29.98	1.043
298.15 K	997.375	1497.3	29.17	0.9291
303.15 K	995.978	1510.7	28.93	0.8195
308.15 K	994.348	1520.2	28.19	0.7465

NCC(=O)O [2-aminoacetic acid] + O
surface tension liquid-gas [mN/m], [1]
Details	m1 = 0.0502	m1 = 0.0755	m1 = 0.1007	m1 = 0.1261	m1 = 0.1514
293.15 K	72.83	72.89	72.77	72.66	72.54
298.15 K	72.09	72.14	72.03	71.88	71.79
303.15 K	71.29	71.35	71.24	70.95	70.84
308.15 K	70.49	70.55	70.6	70.66	70.71
